From US9302999B2, “Substituted triazoles as herbicides” (E. I. DU PONT DE NEMOURS AND COMPANY, priority 2012, dated 2016)

Legend:
Format in all cases: in vivo
[1] = test system: winter wheat (Triticum aestivum); assay: Test C pre-/postemergence: winter wheat
In short: (§1)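 Visual injury scored 0–100 (100 = complete control) against untreated controls after 13–15 greenhouse days. Surfactant-containing solvent formulations applied either to soil after sowing (loam/sand) or over 1- to 4-leaf plants, 2–18 cm tall.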

[2] = test system: large crabgrass (Digitaria sanguinalis); assay: Test C pre-/postemergence: large crabgrass
In short: as §1

kochia (Kochia scoparia) = assay: Test C pre-/postemergence: kochia
In short: as §1

[3] = test system: barnyardgrass (Echinochloa crus-galli); assay: Test A pre-/postemergence: barnyardgrass; settings: for Barnyardgrass plant response rating: Postemergence; for Plant response rating, Barnyardgrass: Preemergence
In short: (§2)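 Visual 0–100 injury ratings (0 no effect, 100 complete control) taken about ten days after treatment, relative to untreated controls. Preemergence treatment was a directed soil spray; postemergence plants were 2–10 cm tall at one- to two-leaf stage. Soil: loam/sand blend.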

[4] = test system: nutsedge, yellow (yellow nutsedge, Cyperus esculentus); assay: Test C pre-/postemergence: nutsedge, yellow
In short: as §1

[5] = test system: ryegrass, Italian (Italian ryegrass, Lolium multiflorum); assay: Test C pre-/postemergence: ryegrass, Italian
In short: as §1

[6] = test system: morningglory (Ipomoea spp.); assay: Test A pre-/postemergence: morningglory; settings: for Morningglory plant response rating: Postemergence; for Plant response rating, Morningglory: Preemergence
In short: as §2

[7] = test system: johnsongrass (Sorghum halepense); assay: Test C pre-/postemergence: johnsongrass
In short: as §1

corn (Zea mays) = assay: Test A pre-/postemergence: corn; settings: for Corn plant response rating: Postemergence; for Plant response rating, Corn: Preemergence
In short: as §2

[8] = test system: galium (catchweed bedstraw, Galium aparine); assay: Test C pre-/postemergence: galium
In short: as §1

[9] = test system: pigweed (Amaranthus retroflexus); assay: Test C pre-/postemergence: pigweed
In short: as §1

[10] = Postemergence, 31 g ai/ha, scale 0 to 100 (0 no effect, 100 complete control)
[11] = Postemergence, 62 g ai/ha, scale 0 to 100 (0 no effect, 100 complete control)
[12] = Postemergence, 125 g ai/ha, scale 0 to 100, 0 no effect, 100 complete control
[13] = Postemergence, 250 g ai/ha, scale 0 to 100
[14] = Preemergence, 31 g ai/ha, scale of 0 to 100, 0 is no effect, 100 is complete control
[15] = Preemergence, 62 g ai/ha, scale of 0 to 100, 0 is no effect, 100 is complete control
[16] = Preemergence, 125 g ai/ha, scale 0 to 100, 0 no effect, 100 complete control
[17] = Preemergence, 250 g ai/ha, scale 0 to 100, 0 no effect, 100 complete control
[18] = 125 g ai/ha, 0 to 100 scale, 0 is no effect, 100 is complete control
[19] = 500 g ai/ha, visual rating on 0 to 100 scale (0 no effect, 100 complete control), approximately ten days
[20] = 125 g ai/ha, 0 to 100 scale (0 no effect, 100 complete control)
[21] = 500 g ai/ha, 0 to 100 scale, 0 is no effect, 100 is complete control

In the case of `FC(F)Oc1nn(-c2ccc(C(F)(F)F)cc2)nc1Cc1ccnc(C(F)(F)F)c1` [Compound 26], the “Plant response rating, Wheat” value [1, 10] is reported as 10, the “Plant response rating, Wheat” value [1, 11] is reported as 20 and the “Plant response rating, Wheat” value [1, 12] is reported as 30. For the same compound, the “Plant response rating, Wheat” value [1, 13] was 35, the “Plant response rating, Wheat” value [1, 14] was 0 and the “Plant response rating, Wheat” value [1, 15] was 5. For the same compound, the “Plant response rating, Wheat” value [1, 16] was 30, the “Plant response rating, Wheat” value [1, 17] was 30 and the “Plant response rating, Crabgrass, Large” value [2, 10] was 20. For the same compound, the “Plant response rating, Crabgrass, Large” value [2, 11] was 30, the “Plant response rating, Crabgrass, Large” value [2, 12] was 40 and the “Plant response rating, Crabgrass, Large” value [2, 13] was 40. For the same compound, the “Plant response rating, Crabgrass, Large” value [2, 14] was 98, the “Plant response rating, Crabgrass, Large” value [2, 15] was 98 and the “Plant response rating, Crabgrass, Large” value [2, 16] was 100. For the same compound, the “Plant response rating, Crabgrass, Large” value [2, 17] was 100, the “Plant response rating, Kochia” value (kochia (Kochia scoparia); [10]) was 75 and the “Plant response rating, Kochia” value (kochia (Kochia scoparia); [11]) was 95. The “Plant response rating, Kochia” value (kochia (Kochia scoparia); [12]) was 95, the “Plant response rating, Kochia” value (kochia (Kochia scoparia); [13]) was 98 and the “Plant response rating, Kochia” value (kochia (Kochia scoparia); [14]) was 45. The “Plant response rating, Kochia” value (kochia (Kochia scoparia); [15]) was 95, the “Plant response rating, Kochia” value (kochia (Kochia scoparia); [16]) was 95 and the “Plant response rating, Kochia” value (kochia (Kochia scoparia); [17]) was 98. For the same compound, the “Barnyardgrass plant response rating” value [3, 18] was 80, the “Barnyardgrass plant response rating” value [3, 19] was 90 and the “Plant response rating, Barnyardgrass” value [3, 20] was 90. The “Plant response rating, Barnyardgrass” value [3, 21] was 90, the “Plant response rating, Nutsedge, Yellow” value [4, 10] was 10 and the “Plant response rating, Nutsedge, Yellow” value [4, 11] was 10. For the same compound, the “Plant response rating, Nutsedge, Yellow” value [4, 12] was 15, the “Plant response rating, Nutsedge, Yellow” value [4, 13] was 15 and the “Plant response rating, Nutsedge, Yellow” value [4, 14] was 0. The “Plant response rating, Nutsedge, Yellow” value [4, 15] was 0, the “Plant response rating, Nutsedge, Yellow” value [4, 16] was 0 and the “Plant response rating, Nutsedge, Yellow” value [4, 17] was 0. For the same compound, the “Plant response rating, Ryegrass, Italian” value [5, 10] was 10, the “Plant response rating, Ryegrass, Italian” value [5, 11] was 20 and the “Plant response rating, Ryegrass, Italian” value [5, 12] was 30. The “Plant response rating, Ryegrass, Italian” value [5, 13] was 35, the “Plant response rating, Ryegrass, Italian” value [5, 14] was 10 and the “Plant response rating, Ryegrass, Italian” value [5, 15] was 60. The “Plant response rating, Ryegrass, Italian” value [5, 16] was 60, the “Plant response rating, Ryegrass, Italian” value [5, 17] was 80 and the “Morningglory plant response rating” value [6, 18] was 100. The “Morningglory plant response rating” value [6, 19] was 100, the “Plant response rating, Morningglory” value [6, 20] was 80 and the “Plant response rating, Morningglory” value [6, 21] was 80. For the same compound, the “Plant response rating, Johnsongrass” value [7, 10] was 15, the “Plant response rating, Johnsongrass” value [7, 11] was 15 and the “Plant response rating, Johnsongrass” value [7, 12] was 25. The “Plant response rating, Johnsongrass” value [7, 13] was 40, the “Plant response rating, Johnsongrass” value [7, 14] was 15 and the “Plant response rating, Johnsongrass” value [7, 15] was 55. The “Plant response rating, Johnsongrass” value [7, 16] was 95, the “Plant response rating, Johnsongrass” value [7, 17] was 98 and the “Corn plant response rating” value (corn (Zea mays); [18]) was 30. The “Corn plant response rating” value (corn (Zea mays); [19]) was 40, the “Plant response rating, Corn” value (corn (Zea mays); [20]) was 30 and the “Plant response rating, Corn” value (corn (Zea mays); [21]) was 50. For the same compound, the “Plant response rating, Galium” value [8, 10] was 50, the “Plant response rating, Galium” value [8, 11] was 55 and the “Plant response rating, Galium” value [8, 12] was 75. The “Plant response rating, Galium” value [8, 13] was 75, the “Plant response rating, Galium” value [8, 14] was 50 and the “Plant response rating, Galium” value [8, 15] was 75. The “Plant response rating, Galium” value [8, 16] was 100, the “Plant response rating, Galium” value [8, 17] was 100 and the “Plant response rating, Pigweed” value [9, 11] was 60. The “Plant response rating, Pigweed” value [9, 12] was 80, the “Plant response rating, Pigweed” value [9, 13] was 98 and the “Plant response rating, Pigweed” value [9, 14] was 100. For the same compound, the “Plant response rating, Pigweed” value [9, 15] was 100, the “Plant response rating, Pigweed” value [9, 16] was 100 and the “Plant response rating, Pigweed” value [9, 17] was 100.
